Data from US20250228882A1, “ORALLY-BIOAVAILABLE NUCLEOSIDE ANALOGS” (Venatorx Pharmaceuticals, Inc., priority 2022, published 2025).
Like-named read-outs stand apart in the source and are kept apart here.

Experiment: Bidirectional Caco-2 permeability assay
Format: in vitro ADME
Details: human
Procedure: The bidirectional permeability of compounds across the Caco-2 cell monolayer was assessed. The Caco-2 model is a widely used in vitro model for small intestinal absorption and potential for efflux. Cell culture. Caco-2 cells were grown in DMEM supplemented with 10% fetal bovine serum (FBS), 1% Penicillin-Streptomycin and 1% MEMNEAA. The cells were incubated at 37° C., 5% CO2/95% air and saturated humidity. After reaching 80-90% confluency, the cells were gently detached with trypsin. Cells at passage 39 were seeded on the 24-well BD insert system at the density of 8×10^4 cells/cm^2 and cultured for 19 days with medium changed every 2-3 days. Measure the transepithelial electrical resistance (TEER) value of each well. The wells can be used only when their TEER values are greater than 600 Ohms/cm^2.
Transport assay. After removing the cell culture medium from the 24-well insert plate, the cells were rinsed with warm transport buffer. Appropriate dosing and receiving solutions were applied to the donor and receiver chambers to initiate the transport assay in apical to basolateral (A to B) or basolateral to apical (B to A) directions (500 and 1300 μL for apical and basolateral wells, respectively). Duplicate wells in each direction were used for the test compound and control compound. The plate was incubated in CO2 incubator at 37° C., with 5% CO2/95% air and saturated humidity without shaking. The sample after 10-minute incubation was used as the To sample, and the sample after 90-minute incubation was used as the T90 sample. To and T90 samples were collected from the donor and receiver side of each well at the designed timepoint, mixed with the transport buffer and acetonitrile/MeOH (1:1, v/v) and the internal standard for LC/MS/MS analysis. All samples were vortexed and centrifuged at 4000 rpm at 4° C. for 15 minutes, diluted with pure water and stored at 4° C. before bioanalysis by LC/MS/MS.
Sample analysis. The concentrations of test compounds and control compounds in Caco-2 cells were quantitatively determined by LC/MS/MS method after protein precipitation.
Calculations. The apparent permeability (Papp, cm/s), efflux ratio (ER) and recovery parameters were calculated for Caco-2 drug transport assay using the following equations: […]
where VR is the solution volume in the receiver chamber (0.4 mL on the apical side, 1.2 mL on the basolateral side); Area is the surface area for the insert membrane, i.e., 0.3 cm^2 for the area of the monolayer; Time is incubation time, expressed in seconds, i. e., 5400 s (90 min) for the current experiment; Co is the initial concentration of test compound or peak area ratio of control compounds in the donor chamber (M); VD is the volume in the donor chambers (0.4 mL on the apical side, 1.2 mL on the basolateral side); CD and CR are the final concentrations of test compounds or peak area ratio of control compounds in donor and receiver chambers, respectively.
Compounds with Papp<1.0 are classified as low permeability, Papp between 1-10 are classified as medium permeability, and Papp>10 are classified as high permeability. An efflux ratio (ER)>2 indicates the compounds are potential substrates for intestinal cell efflux transporters.

[1] = Caco-2 monolayer, apical to basolateral, 90-minute incubation, read-out: Papp, A-B
[2] = Caco-2 monolayer, basolateral to apical, 90-minute incubation, read-out: Papp, B-A
[3] = Caco-2 monolayer, ER>2 indicates potential efflux substrate, read-out: ER (efflux ratio)

SMILES	Papp A→B at 90 min (Caco-2) [×10⁻⁶ cm/s]	Papp B→A at 90 min (Caco-2) [×10⁻⁶ cm/s]	efflux ratio at 90 min (Caco-2)	Papp A→B at 90 min [1] [×10⁻⁶ cm/s]	Papp B→A at 90 min [2] [×10⁻⁶ cm/s]	efflux ratio at 90 min [3]
CC(C)NC(=O)Nc1ncnn2c([C@]3(C#N)O[C@H](COC(=O)CC4CCCCC4)[C@@H](OC(=O)[C@@H](N)C(C)(C)C)[C@H]3O)ccc12 [Compound 4, (2R,3S,4R,5R)-5-cyano-2-((2-cyclohexylacetoxy)methyl)-4-hydroxy-5-(4-(3-isopropylureido)pyrrolo[2,1-f][1,2,4]triazin-7-yl)tetrahydrofuran-3-yl (S)-2-amino-3,3-dimethylbutanoate]	2.5	3.48	1.37	–	–	–
COC(C)(C)C(=O)Nc1ncnn2c([C@]3(C#N)O[C@H](COC(=O)CC4CCCCCC4)[C@@H](OC(=O)[C@H](N)C(C)(C)C)[C@H]3O)ccc12 [Compound 70, (2R,3S,4R,5R)-5-cyano-2-((2-cycloheptylacetoxy)methyl)-4-hydroxy-5-(4-(2-methoxy-2-methylpropanamido)pyrrolo[2,1-f][1,2,4]triazin-7-yl)tetrahydrofuran-3-yl (R)-2-amino-3,3-dimethylbutanoate]	2.13	2.2	1.03	–	–	–
CCOC(C)(C)C(=O)Nc1ncnn2c([C@]3(C#N)O[C@H](COC(=O)CC4CCCCC4)[C@@H](OC(=O)[C@@H](N)C(C)(C)C)[C@H]3O)ccc12 [Compound 7, (2R,3S,4R,5R)-5-cyano-2-((2-cyclohexylacetoxy)methyl)-5-(4-(2-ethoxy-2-methylpropanamido)pyrrolo[2,1-f][1,2,4]triazin-7-yl)-4-hydroxytetrahydrofuran-3-yl (S)-2-amino-3,3-dimethylbutanoate]	7.82	8.41	1.07	–	–	–
CC[C@H](C)C(=O)Nc1ncnn2c([C@]3(C#N)O[C@H](COC(=O)Cc4ccccc4)[C@@H](OC(=O)[C@@H](N)C(C)(C)C)[C@H]3O)ccc12 [Compound 10, (2R,3S,4R,5R)-5-cyano-4-hydroxy-5-(4-((S)-2-methylbutanamido)pyrrolo[2,1-f][1,2,4]triazin-7-yl)-2-((2-phenylacetoxy)methyl)tetrahydrofuran-3-yl (S)-2-amino-3,3-dimethylbutanoate]	–	–	–	0.59	0.1	0.17
CCC(CC)C(=O)Nc1ncnn2c([C@]3(C#N)O[C@H](COC(=O)CC4CCCCCC4)[C@@H](OC(=O)[C@@H](N)C(C)(C)C)[C@H]3O)ccc12 [Compound 62, (2R,3S,4R,5R)-5-cyano-2-((2-cycloheptylacetoxy)methyl)-5-(4-(2-ethylbutanamido)pyrrolo[2,1-f][1,2,4]triazin-7-yl)-4-hydroxytetrahydrofuran-3-yl (S)-2-amino-3,3-dimethylbutanoate]	1.4	0.89	0.64	–	–	–
CC(C)(C)[C@H](N)C(=O)OC[C@H]1O[C@@](C#N)(c2ccc3c(NC(=O)CC4CCCCC4)ncnn23)[C@H](O)[C@@H]1O [Compound 39, ((2R,3S,4R,5R)-5-cyano-5-(4-(2-cyclohexylacetamido)pyrrolo[2,1-f][1,2,4]triazin-7-yl)-3,4-dihydroxytetrahydrofuran-2-yl)methyl (S)-2-amino-3,3-dimethylbutanoate]	0.72	16.9	23.4	–	–	–
CC(C)[C@H](C)C(=O)Nc1ncnn2c([C@]3(C#N)O[C@H](COC(=O)Cc4ccccc4)[C@@H](OC(=O)[C@@H](N)C(C)(C)C)[C@H]3O)ccc12 [Compound 22, (2R,3S,4R,5R)-5-cyano-5-(4-((S)-2,3-dimethylbutanamido)pyrrolo[2,1-f][1,2,4]triazin-7-yl)-4-hydroxy-2-((2-phenylacetoxy)methyl)tetrahydrofuran-3-yl (S)-2-amino-3,3-dimethylbutanoate]	–	–	–	2.79	6.1	2.19
CCOC(C)(C)C(=O)Nc1ncnn2c([C@]3(C#N)O[C@H](COC(=O)Cc4ccccc4)[C@@H](OC(=O)[C@@H](N)C(C)(C)C)[C@H]3O)ccc12 [Compound 6, (2R,3S,4R,5R)-5-cyano-5-(4-(2-ethoxy-2-methylpropanamido)pyrrolo[2,1-f][1,2,4]triazin-7-yl)-4-hydroxy-2-((2-phenylacetoxy)methyl)tetrahydrofuran-3-yl (S)-2-amino-3,3-dimethylbutanoate]	–	–	–	14	15.4	1.1
CCC(CC)C(=O)Nc1ncnn2c([C@]3(C#N)O[C@H](COC(=O)CC4CCCC4)[C@@H](OC(=O)[C@@H](N)C(C)(C)C)[C@H]3O)ccc12 [Compound 56, (2R,3S,4R,5R)-5-cyano-2-((2-cyclopentylacetoxy)methyl)-5-(4-(2-ethylbutanamido)pyrrolo[2,1-f][1,2,4]triazin-7-yl)-4-hydroxytetrahydrofuran-3-yl (S)-2-amino-3,3-dimethylbutanoate]	7.61	7.57	0.99	–	–	–
CC(=O)OCOC(=O)Nc1ncnn2c([C@]3(C#N)O[C@H](COC(=O)[C@@H](N)C(C)(C)C)[C@@H](OC(=O)CC4CCCCC4)[C@H]3O)ccc12 [Compound 36, ((2R,3S,4R,5R)-5-(4-(((acetoxymethoxy)carbonyl)amino)pyrrolo[2,1-f][1,2,4]triazin-7-yl)-5-cyano-3-(2-cyclohexylacetoxy)-4-hydroxytetrahydrofuran-2-yl)methyl (S)-2-amino-3,3-dimethylbutanoate]	0.93	1.15	1.24	–	–	–
CCC(CC)C(=O)Nc1ncnn2c([C@]3(C#N)O[C@H](COC(=O)Cc4ccccc4)[C@@H](OC(=O)[C@@H](N)C(C)(C)C)[C@H]3O)ccc12 [Compound 8, (2R,3S,4R,5R)-5-cyano-5-(4-(2-ethylbutanamido)pyrrolo[2,1-f][1,2,4]triazin-7-yl)-4-hydroxy-2-((2-phenylacetoxy)methyl)tetrahydrofuran-3-yl (S)-2-amino-3,3-dimethylbutanoate]	–	–	–	0.52	0.13	0.26
CC(=O)Nc1ncnn2c([C@]3(C#N)O[C@H](COC(=O)[C@@H](N)C(C)(C)C)[C@@H](OC(=O)CC4CCCCC4)[C@H]3O)ccc12 [Compound 33, ((2R,3S,4R,5R)-5-(4-acetamidopyrrolo[2,1-f][1,2,4]triazin-7-yl)-5-cyano-3-(2-cyclohexylacetoxy)-4-hydroxytetrahydrofuran-2-yl)methyl (S)-2-amino-3,3-dimethylbutanoate]	24.4	–	–	–	–	–
CCCCCCOC(=O)Nc1ncnn2c([C@]3(C#N)O[C@H](COC(=O)[C@@H](N)C(C)(C)C)[C@@H](OC(=O)CC)[C@H]3O)ccc12 [Compound 42, ((2R,3S,4R,5R)-5-cyano-5-(4-(((hexyloxy)carbonyl)amino)pyrrolo[2,1-f][1,2,4]triazin-7-yl)-4-hydroxy-3-(propionyloxy)tetrahydrofuran-2-yl)methyl (S)-2-amino-3,3-dimethylbutanoate]	4.24	3.97	0.94	–	–	–
CC[C@@H](C)C(=O)Nc1ncnn2c([C@]3(C#N)O[C@H](COC(=O)CC4CCCCC4)[C@@H](OC(=O)[C@@H](N)C(C)(C)C)[C@H]3O)ccc12 [Compound 12, (2R,3S,4R,5R)-5-cyano-2-((2-cyclohexylacetoxy)methyl)-4-hydroxy-5-(4-((R)-2-methylbutanamido)pyrrolo[2,1-f][1,2,4]triazin-7-yl)tetrahydrofuran-3-yl (S)-2-amino-3,3-dimethylbutanoate]	3.48	25.5	7.34	–	–	–
CCCCCC(=O)Nc1ncnn2c([C@]3(C#N)O[C@H](COC(=O)CC4CCCC4)[C@@H](OC(=O)[C@@H](N)C(C)(C)C)[C@H]3O)ccc12 [Compound 55, (2R,3S,4R,5R)-5-cyano-2-((2-cyclopentylacetoxy)methyl)-5-(4-hexanamidopyrrolo[2,1-f][1,2,4]triazin-7-yl)-4-hydroxytetrahydrofuran-3-yl (S)-2-amino-3,3-dimethylbutanoate]	2.74	3.63	1.33	–	–	–
